PMC11478212, “Antitumoral and Antiproliferative Potential of Synthetic Derivatives of Scorpion Peptide IsCT1 in an Oral Cavity Squamous Carcinoma Model” (Molecules, 2024)

Legend:
SCC-25 tumor cells = assay: Cellular marker expression by flow cytometry; assay type: cell-based
Method: (§1) Figure 6 Analysis of marker expression in tongue squamous cell carcinoma tumor cells. The expression of markers was quantified using flow cytometry after 24 h of treatment with the AC-AFPK-IsCT1 peptide at its IC50 value determined for each cell line. (a) Representative density plots display the distribution of cells with fluorescence intensity; (b) marker expression in SCC-9 tumor cells; (c) marker expression in SCC-25 tumor cells. Bar graphs present protein expression levels as the mean ± SD from three independent experiments. Values are expressed as the mean ± SD from three independent experiments. Statistical differences were determined using ANOVA and Tukey–Kramer multiple comparison tests. * p < 0.05 and *** p < 0.001 denote significance. ns = not significant.
(§2) Tumor cells SSC-9 and SSC-25, both treated with the peptides at their IC50 concentrations for 24 h and control groups (10^5 cells/mL), were incubated at 4 °C for 1 h with 1 μg of specific antibodies conjugated with Alexa Fluor™ 488. Various markers associated with cell death and cell cycle progression, such as caspase 3 and 8, cyclin D1, PCNA, p53, and TNF-α conjugated with Alexa Fluor™ 488, were used as indicated. For intracellular markers, TritonX 0.1% was used for 30 min at room temperature before antibody labeling. Following centrifugation at 1500 rpm and washing with PBS, the supernatant was discarded and the pellet was resuspended in 200 μL of FACS buffer. The reading and analysis of receptor expression on the cell surface of tumor cells were carried out using a FACScanto flow cytometer (BD) with fluorescence intensity FL1-H for the number of events (10,000 events), and the dot plots were acquired and analyzed using FCS Express software.

SCC-9 tumor cells = assay: Cellular marker expression by flow cytometry; assay type: cell-based
Method: as §1, §2

[1] = 24 h at IC50, compared to control cells, mean ± SD of three independent experiments
[2] = 24 h at IC50, mean ± SD of three independent experiments

With Ac-ALGKFWPKIKSLF-NH2 [AC-AFPK-IsCT1] the “decrease in Cyclin D1 expression” value (SCC-25 tumor cells; [1]) was 15 ± 1.3%, the “decrease in PCNA expression” value (SCC-25 tumor cells; [1]) was 22.8 ± 2.5% and the “increase in TNF-α-expressing cells” value (SCC-25 tumor cells; [2]) was 85.6 ± 8.4%. The “increase in caspase 3 expression” value (SCC-25 tumor cells; [2]) was 86.2 ± 7%, the “increase in caspase 8 expression” value (SCC-25 tumor cells; [2]) was 82.3 ± 5.5% and the “increase in p53-expressing cells” value (SCC-25 tumor cells; [2]) was 83.5 ± 1.8%. The “change in Cyclin-D1 expression” value (SCC-9 tumor cells; 24 h at IC50) was “No significant changes”, the “increase in caspase 3 expression” value (SCC-9 tumor cells; [1]) was 67 ± 4.9% and the “increase in caspase 8 expression” value (SCC-9 tumor cells; [1]) was 61.6 ± 3%. The “increase in cells expressing TNF-α” value (SCC-9 tumor cells; [1]) was 69.2 ± 2.6%, the “increase in cells expressing p53” value (SCC-9 tumor cells; [1]) was 60.7 ± 1.6% and the “reduction in PCNA expression” value (SCC-9 tumor cells; [1]) was 21.4 ± 0.4%.
